Where only a bound is given, the exact number is not on record here.

The assay has as its system onset of the headache phase of migraine. The experiment in a line: Open label pilot study of oral naratriptan 2.5 mg taken as a single dose during prodrome. It is filed as in vivo, human. The protocol:
An open label pilot study was conducted to determine whether oral naratriptan 2.5 mg taken as a single dose during the prodrome could prevent the onset of the headache phase of migraine. […] Twenty patients recruited at 4 study sites were administered oral naratriptan 2.5 mg after onset of prodrome symptoms for a total of 63 prodromes. […] The pain severity of headaches that were not prevented were reduced as compared to baseline pain severity of migraine attacks not treated with naratriptan. An additional 13 patients recruited at a fifth site were also treated. […] Upon review, all 13 patients reported onset of headache within 3 hours after administration of naratriptan. Eighty-seven percent of prodromes in this patient group were treated ≦2 hours before onset of headache.

As for `CNS(=O)(=O)CCc1ccc2[nH]cc(C3CCN(C)CC3)c2c1.Cl` [naratriptan, N-methyl-3-(1-methyl-4-piperidinyl)-1H-indole-5-ethanesulfonamide monohydrochloride], the “headaches not prevented that occurred ≦2 hours after treatment” value (4 sites, 15 of the 25 headaches) was 60%. Also, the “pain severity of headaches that were not prevented, compared to baseline pain severity of attacks not treated with naratriptan” value (4 study sites, oral 2.5 mg) is recorded as “reduced”. Further, the “treated prodromes that did not progress to headache” value (20 patients at 4 study sites, 63 prodromes, oral 2.5 mg after onset of prodrome symptoms) was “Sixty”. The “patients reporting headache following treatment” value (additional 13 patients at a fifth site) is on record as “All 13 patients reported headache following each treatment”. In addition, where the note is “fifth site, 13 patients”, the “prodromes treated ≦2 hours before onset of headache” value was “Eighty-seven”. For the same compound, where the note is “fifth site, all 13 patients”, the “onset of headache after administration” value is no more than 3 h. Besides, the “preventing the onset of the headache phase of migraine” value (oral 2.5 mg single dose during prodrome, open label) is “effective in preventing the onset of the headache phase of migraine”.
